Test results: US4749710A, “Immunosuppressive agents” (priority 1985, dated 1988)
Read-outs that look alike come from different tables or passages of the source.

Assays:
Assay type in all cases: cell-based
[1] = system: IgM production by human lymphocytes; experiment: Inhibition of IgM production by human lymphocytes in vitro (SAC activation, ELISA); settings: 8 days, vehicle control 2.49 ± 0.17
From the text: (§1) General Test Description Humoral immunity comprises one of the two major arms of the immune system and generally is beneficial. However, a number of disease states are characterized by a hyperactive immune system responding to self tissue antigens. […] In these diseases it would be important to suppress the humoral immune system.
(§2) In the following studies we used established methods to examine the effect of Vitamin D derivatives on the in vitro production of immunoglobulin (Ig) by human peripheral blood leukocytes (PBL) following polyclonal activation. Immunoglobulin was induced from PBL by co-culturing the PBL with the polyclonal B cell activator Staphylococcus aureus strain Cowan I (SAC) for a period of 8 days. The quantity of Ig produced in the culture supernatants was determined by using an enzyme linked immunosorbent assay (ELISA). The effect of Vitamin D derivatives was determined by comparing the amount of antibody produced in cultures containing Vitamin D derivatives to those cultures containing an appropriate concentration of vehicle (ethanol).
(§3) Solutions of vitamin D derivatives. Stock solutions of vitamin D derivatives were prepared as described previously for the murine CTL experiments.
(§4) INDUCTION OF HUMAN IG SECRETION Human peripheral blood mononuclear leukocytes were prepared from one day old buffy coat preparations obtained from the American Red Cross (Lansing, MI). […] Twenty five ml of this preparation were overlayed onto 25 ml of Ficoll-Paque contained in a 50 ml polypropylene centrifuge tube. After centrifugation at 400×g at 15° C. for 40 min, the cells at the interface of the medium and Ficoll were removed and washed 3 times in 50 ml RPMI medium and centrifuged at 300×g for 10 minutes. After the final centrifugation,the cell pellet was suspended in RPMI medium containing 20% fetal bovine serum (FBS) and 80 μg/ml gentamicin. The number of viable cells was determined by trypan blue exclusion and were then suspended to 2.5×10^6 viable cells per ml in RPMI containing 20% FBS and gentamicin. Human PBL were induced to secrete Ig as follows. One hundred microliters of the PBL suspension and an additional 100 μl of a 1:20,000 (v/v) preparation of SAC suspended in RPMI containing 1% FBS were added to each well of a 96-well microtiter plate. Selected wells were also set up without the addition of SAC to serve as negative controls (spontaneous Ig secretion). Each well then received 20 μl of either the appropriate dilution of Vitamin D derivative in RPMI with 1% ethanol or RPMI with 1% ethanol (vehicle control). The vitamin D derivatives were tested at final concentrations of 10^-5, 10^-6, 10^-7, 10^-8, 10^-9, and 10^-10 M and in all cases the vehicle (ethanol) concentration was 0.1%. All treatments were performed in triplicate. […] The samples were then either assayed immediately or stored at -20° C. until assayed by the ELISA technique described below.
(§5) QUANTITATION OF SECRETED IG (ELISA ASSAY) ELISA plates were prepared for quantitating human IgG and IgM levels in culture supernatants as follows. Affinity purified sheep anti-human IgG and goat anti-human IgM (Cappel, Cochranville, PA) were diluted 1:250 and 1:400 respectively, in carbonate coating buffer (0.05M sodium bicarbonate, 0.05M sodium carbonate, 0.15M sodium chloride). One hundred and fifty microliters of the antibody preparation were added to each well of a 96 well ELISA plate (EIA, Costar). The plates were sealed and incubated overnight at 4° C. and on the following day were washed 3 times with distilled water. Each well then received 350 μl of Dulbecco's PBS containing 1 mg/ml bovine serum albumin (BSA) and 0.5 mg/ml sodium azide. The plates were allowed to incubate for 1 hour at 37° C. and then washed 3 times with Dulbecco's PBS containing 0.5% stock Tween 20 (PBS-Tween) followed by 2 washes with distilled water. The plates were air dried and stored desiccated under a vacuum at 4° C. until use.

[2] = system: IgG production by human lymphocytes; experiment: Inhibition of IgG production by human lymphocytes in vitro (SAC activation, ELISA); settings: 8 days, vehicle control 0.78 ± 0.09
From the text: as §1, §2, §3, §4, §5

[3] = system: human cytotoxic T-lymphocyte responses; experiment: Inhibition of human CTL responses (mixed leukocyte-tumor cultures, HT-144 melanoma, ^51 Cr release); settings: donor I, 0.01% ethanol, effector to target 6:1
Experimental: Human cells for the tests described below were taken from four donors designated I, II, III, and IV in the tables below.
Stock solutions of Vitamin D derivatives were prepared as they were prepared above in the murine tests.
Human cytotoxic T-lymphocytes were generated in mixed leukocyte-tumor cultures by known methods. Specifically, blood from normal volunteer donors was drawn into heparinized syringes, diluted 1:1 with calcium-magnesium free Hanks' balanced salt solution (Ca-Mg free HBSS), and layered over lymphocyte separation medium (Litton Bionetics, Kensington, MD). After centrifugation at 500xg for 20-30 min at room temperature, peripheral blood mononuclear cells were harvested from the interface. The peripheral blood mononuclear leukocytes were centrifuged and resuspended in Ca-Mg free HBSS and were subsequently separated from platelets by centrifugation at 500xg through a solution of 20% sucrose and 1% human AB serum in Ca-Mg free HBSS. The cells were washed once and finally resuspended in tissue culture medium. […] Cells to be used as stimulator cells in mixed leukocyte-tumor cultures were irradiated with 10,000 rads of gamma irradiation to preclude proliferation in culture. Mixed leukocyte-tumor cell cultures were established in 16 mm tissue culture wells at a final volume of 1.5 ml per well containing 2×10^6 peripheral blood mononuclear leukocytes and 5×10^4 irradiation-inactivated stimulator cells. In order to prevent the generation of nonspecific cytotoxic cells in these cultures, hydrocortisone sodium succinate was added to each culture at a final concentration of 1×10^-5 M. Mixed leukocyte-tumor cultures were incubated for 6 days in a humidified atmosphere of 5% CO2 in air.
Labelled target cells were washed free of unbound isotope by 3 serial washes in tissue culture medium and were finally resuspended at a concentration of 5×10^4 cells per ml.
Assays of human cytotoxic T-lymphocytes were done by known methods. Specifically, one-tenth ml aliquots of ^51 Cr-labelled target cell suspension were added to "half area" microtest plates and were incubated at 37° C. for 18 hours in a humidified atmosphere of 5% CO2 in air to permit the cells to adhere and spread on the floor of each well. Culture medium was then aspirated from each well and was replaced with 0.1 ml of tissue culture medium containing cells harvested from mixed leukocyte-tumor cultures which had been processed as described for murine mixed leukocute cultures, above. Control wells for measurement of spontaneous ^51 Cr release received medium without effector cells and wells for measurement of maximal releasable ^51 Cr received 0.1 ml of 2% sodium dodecyl sulfate in distilled water. After overnight incubation at 37° in a humidified atmosphere of 5% CO2 in air, 0.05 ml of cell-free supernatant was withdrawn from each well and the amount of released ^51 Cr was quantitated using a gamma spectrometer. The percentage of specific ^51 Cr release (CTL activity) and the percent inhibition of CTL activity were calculated with the same formulas used above for the murine CTL assay.
Tests conducted on human cytotoxic T-lymphocyte responses are reported as the mean±standard error of the mean from triplicate ^51 Cr release determinations on pooled cells from duplicate control or test cultures.

C=C1/C(=C\C=C2/CCC[C@]3(C)[C@@H]([C@H](C)CC[C@@H](F)C(C)(C)O)CC[C@@H]23)C[C@@H](O)C[C@@H]1O [24R-F--1α,25-(OH)2 --D3, 1α,25-Dihydroxy-24R-fluorocholecalciferol]
IgM μg per culture (x ± S.E.M.) ([1]; 1 × 10^-6 molar): undetectable
IgM μg per culture (x ± S.E.M.) ([1]; 1 × 10^-7 molar): 0.12 ± 0.06 μg per culture
IgM μg per culture (x ± S.E.M.) ([1]; 1 × 10^-8 molar): 1.23 ± 0.03 μg per culture
IgM μg per culture (x ± S.E.M.) ([1]; 1 × 10^-9 molar): 3.13 ± 0.41 μg per culture
IgM μg per culture (x ± S.E.M.) ([1]; 1 × 10^-10 molar): 3.84 ± 0.72 μg per culture
IgG μg per culture (x ± S.E.M.) ([2]; 1 × 10^-6 molar): undetectable
IgG μg per culture (x ± S.E.M.) ([2]; 1 × 10^-7 molar): 0.01 ± 0.002 μg per culture
IgG μg per culture (x ± S.E.M.) ([2]; 1 × 10^-8 molar): 0.10 ± 0.02 μg per culture
IgG μg per culture (x ± S.E.M.) ([2]; 1 × 10^-9 molar): 0.22 ± 0.05 μg per culture
IgG μg per culture (x ± S.E.M.) ([2]; 1 × 10^-10 molar): 0.21 ± 0.06 μg per culture
inhibition at 1 µM ([3]; Homo sapiens, T-lymphocyte, Test 1, 1 × 10^-6 molar, read-out: Inhibition of CTL activity (%)): 87%
inhibition at 0.1 µM ([3]; Homo sapiens, T-lymphocyte, Test 1, 1 × 10^-7 molar, read-out: Inhibition of CTL activity (%)): 62%
inhibition at 10 µM ([3]; Homo sapiens, T-lymphocyte, Test 2, 1 × 10^-5 molar, read-out: Inhibition of CTL activity (%)): 94%
inhibition at 1 µM ([3]; Homo sapiens, T-lymphocyte, Test 2, 1 × 10^-6 molar, read-out: Inhibition of CTL activity (%)): 100%
CTL activity (% specific ^51 Cr release) ([3]; Test 1, 1 × 10^-6 molar): 7 ± 6 % specific ^51 Cr release
CTL activity (% specific ^51 Cr release) ([3]; Test 1, 1 × 10^-7 molar): 20 ± 1 % specific ^51 Cr release
CTL activity (% specific ^51 Cr release) ([3]; Test 2, 1 × 10^-5 molar): 3 ± 4 % specific ^51 Cr release
CTL activity (% specific ^51 Cr release) ([3]; Test 2, 1 × 10^-6 molar): 0 ± 3 % specific ^51 Cr release
